# Assay results as given in ChEMBL document CHEMBL3797052 (Eur J Med Chem, 2016).
# Legend:
# Type in all cases: functional
# [1] = Antiproliferative activity against human OVCAR4 cells assessed as cell growth at 10^-7 M after 48 hrs by sulforhodamine B assay; details: OVCAR-4, 48 h, read-out: Activity
# [2] = system: EKVX; test: Antiproliferative activity against human EKVX cells assessed as cell growth at 10^-6 M after 48 hrs by sulforhodamine B assay; details: read-out: Activity
# [3] = system: SK-MEL-5; test: Antiproliferative activity against human SK-MEL-5 cells assessed as cell growth at 10^-5 M after 48 hrs by sulforhodamine B assay; details: SK-MEL-5, 48 h, read-out: Activity
# [4] = Antiproliferative activity against human UACC62 cells assessed as cell growth at 10^-5 M after 48 hrs by sulforhodamine B assay; details: UACC-62, 48 h, read-out: Activity
# [5] = system: U-251; test: Antiproliferative activity against human U251 cells assessed as cell growth at 10^-4 M after 48 hrs by sulforhodamine B assay; details: U-251, 48 h, read-out: Activity
# [6] = system: NCI-H322M; test: Antiproliferative activity against human NCI-H322M cells assessed as growth inhibition after 48 hrs by sulforhodamine B assay
# [7] = system: MCF7; test: Antiproliferative activity against human MCF7 cells assessed as cell growth at 10^-7 M after 48 hrs by sulforhodamine B assay; details: MCF7, 48 h, read-out: Activity
# [8] = system: Malme-3M; test: Antiproliferative activity against human MALME-3M cells assessed as cell growth at 10^-5 M after 48 hrs by sulforhodamine B assay; details: read-out: Activity
# [9] = system: Malme-3M; test: Antiproliferative activity against human MALME-3M cells assessed as cell growth at 10^-4 M after 48 hrs by sulforhodamine B assay; details: read-out: Activity
# [10] = Antiproliferative activity against human HOP62 cells assessed as cell growth at 10^-5 M after 48 hrs by sulforhodamine B assay; details: HOP-62, 48 h, read-out: Activity
# [11] = Antiproliferative activity against human HCT116 cells assessed as cell growth at 10^-5 M after 48 hrs by sulforhodamine B assay; details: HCT-116, 48 h, read-out: Activity
# [12] = Antiproliferative activity against human SF295 cells assessed as cell growth at 10^-4 M after 48 hrs by sulforhodamine B assay; details: SF-295, 48 h, read-out: Activity
# [13] = Antiproliferative activity against human SF539 cells assessed as cell growth at 10^-5 M after 48 hrs by sulforhodamine B assay; details: SF-539, 48 h, read-out: Activity
# [14] = system: NCI-H522; test: Antiproliferative activity against human NCI-H522 cells assessed as cell growth at 10^-5 M after 48 hrs by sulforhodamine B assay; details: NCI-H522, 48 h, read-out: Activity
# [15] = system: SK-MEL-28; test: Antiproliferative activity against human SK-MEL-28 cells assessed as cell growth at 10^-5 M after 48 hrs by sulforhodamine B assay; details: SK-MEL-28, 48 h, read-out: Activity
# [16] = system: HT-29; test: Antiproliferative activity against human HT-29 cells assessed as cell growth at 10^-5 M after 48 hrs by sulforhodamine B assay; details: HT-29, 48 h, read-out: Activity
# [17] = system: K562; test: Antiproliferative activity against human K562 cells assessed as cell growth at 10^-5 M after 48 hrs by sulforhodamine B assay; details: K562, 48 h, read-out: Activity
# [18] = Antiproliferative activity against human SF539 cells assessed as cell growth at 10^-6 M after 48 hrs by sulforhodamine B assay; details: SF-539, 48 h, read-out: Activity
# [19] = system: NCI-H460; test: Antiproliferative activity against human NCI-H460 cells assessed as cell growth at 10^-5 M after 48 hrs by sulforhodamine B assay; details: NCI-H460, 48 h, read-out: Activity
# [20] = system: T47D; test: Antiproliferative activity against human T47D cells assessed as cell growth at 10^-5 M after 48 hrs by sulforhodamine B assay; details: read-out: Activity
# [21] = Antiproliferative activity against human RXF393 cells assessed as cell growth at 10^-5 M after 48 hrs by sulforhodamine B assay; details: RXF 393, 48 h, read-out: Activity
# [22] = Antiproliferative activity against human RPMI8226 cells assessed as cell growth at 10^-5 M after 48 hrs by sulforhodamine B assay; details: RPMI-8226, 48 h, read-out: Activity
# [23] = Antiproliferative activity against human UO31 cells assessed as cell growth at 10^-5 M after 48 hrs by sulforhodamine B assay; details: UO-31, 48 h, read-out: Activity
# [24] = system: HT-29; test: Antiproliferative activity against human HT-29 cells assessed as growth inhibition after 48 hrs by sulforhodamine B assay; details: HT-29, 48 h
# [25] = Antiproliferative activity against human NCI-ADR-RES cells assessed as cell growth at 10^-5 M after 48 hrs by sulforhodamine B assay; details: read-out: Activity
# [26] = system: EKVX; test: Antiproliferative activity against human EKVX cells assessed as cell growth at 10^-5 M after 48 hrs by sulforhodamine B assay; details: read-out: Activity
# [27] = system: SR; test: Antiproliferative activity against human SR cells assessed as cell growth at 10^-5 M after 48 hrs by sulforhodamine B assay; details: read-out: Activity
# [28] = Antiproliferative activity against human LOXIMVI cells assessed as cell growth at 10^-4 M after 48 hrs by sulforhodamine B assay; details: LOX IMVI, read-out: Activity
# [29] = system: ACHN; test: Antiproliferative activity against human ACHN cells assessed as cell growth at 10^-5 M after 48 hrs by sulforhodamine B assay; details: read-out: Activity
# [30] = system: SK-MEL-28; test: Antiproliferative activity against human SK-MEL-28 cells assessed as cell growth at 10^-8 M after 48 hrs by sulforhodamine B assay; details: SK-MEL-28, 48 h, read-out: Activity
# [31] = system: MCF7; test: Antiproliferative activity against human MCF7 cells assessed as cell growth at 10^-5 M after 48 hrs by sulforhodamine B assay; details: MCF7, 48 h, read-out: Activity
# [32] = system: M14; test: Antiproliferative activity against human M14 cells assessed as cell growth at 10^-5 M after 48 hrs by sulforhodamine B assay; details: M14, 48 h, read-out: Activity
# [33] = Antiproliferative activity against human SNB75 cells assessed as cell growth at 10^-5 M after 48 hrs by sulforhodamine B assay; details: SNB-75, 48 h, read-out: Activity
# [34] = system: U-251; test: Antiproliferative activity against human U251 cells assessed as cell growth at 10^-5 M after 48 hrs by sulforhodamine B assay; details: U-251, 48 h, read-out: Activity
# [35] = system: KM12; test: Antiproliferative activity against human KM12 cells assessed as growth inhibition after 48 hrs by sulforhodamine B assay; details: KM12, 48 h
# [36] = Antiproliferative activity against human SF295 cells assessed as cell growth at 10^-5 M after 48 hrs by sulforhodamine B assay; details: SF-295, 48 h, read-out: Activity
# [37] = Antiproliferative activity against human MOLT4 cells assessed as cell growth at 10^-5 M after 48 hrs by sulforhodamine B assay; details: MOLT-4, 48 h, read-out: Activity
# [38] = Antiproliferative activity against human TK10 cells assessed as cell growth at 10^-5 M after 48 hrs by sulforhodamine B assay; details: TK-10, 48 h, read-out: Activity
# [39] = Antiproliferative activity against human LOXIMVI cells assessed as cell growth at 10^-5 M after 48 hrs by sulforhodamine B assay; details: LOX IMVI, read-out: Activity
structure (smiles),measurement,setting,value
CNC(=O)c1cc(Oc2ccc3nc(NC(=O)Nc4ccc(Cl)c(C(F)(F)F)c4)sc3c2)ccn1,growth at 0.1 µM,[1],95%
same,growth at 1 µM,[2],82%
same,growth at 10 µM,[3],-62%
same,growth at 10 µM,[4],-22%
same,growth at 100 µM,[5],-34%
same,GI50,[6],2.62 µM
same,LC50 (50% lethal concentration),[6],> 100 µM
same,growth at 0.1 µM,[7],89%
same,growth at 10 µM,[8],-62%
same,growth at 100 µM,[9],-48%
same,growth at 10 µM,[10],-42%
same,growth at 10 µM,[11],-29%
same,growth at 100 µM,[12],-82%
same,growth at 10 µM,[13],-60%
same,growth at 10 µM,[14],6%
same,growth at 10 µM,[15],-68%
same,growth at 10 µM,[16],5%
same,growth at 10 µM,[17],32%
same,growth at 1 µM,[18],87%
same,growth at 10 µM,[19],-57%
same,growth at 10 µM,[20],-34%
same,growth at 10 µM,[21],-45%
same,growth at 10 µM,[22],-10%
same,growth at 10 µM,[23],-54%
same,LC50,[24],> 100 µM
same,TGI,[24],> 100 µM
same,growth at 10 µM,[25],-21%
same,growth at 10 µM,[26],-50%
same,growth at 10 µM,[27],-1%
same,growth at 100 µM,[28],11%
same,growth at 10 µM,[29],-67%
same,growth at 0.01 µM,[30],92%
same,growth at 10 µM,[31],-3%
same,growth at 10 µM,[32],-29%
same,growth at 10 µM,[33],-75%
same,growth at 10 µM,[34],-66%
same,GI50,[35],3.41 µM
same,LC50,[35],> 100 µM
same,TGI,[35],> 100 µM
same,growth at 10 µM,[36],-68%
same,growth at 10 µM,[37],38%
same,growth at 10 µM,[38],-55%
CNC(=O)c1cc(Oc2ccc3nc(NC(=O)Nc4cc(C(F)(F)F)cc(C(F)(F)F)c4)sc3c2)ccn1,growth at 0.1 µM,[1],94%
same,growth at 1 µM,[2],60%
same,growth at 10 µM,[3],-76%
same,growth at 10 µM,[4],-77%
same,growth at 100 µM,[5],-100%
same,GI50,[6],1.49 µM
same,TGI,[6],3.65 µM
same,growth at 0.1 µM,[7],87%
same,growth at 10 µM,[8],-74%
same,growth at 100 µM,[9],-76%
same,growth at 10 µM,[10],-72%
same,growth at 10 µM,[11],-90%
same,growth at 100 µM,[12],-71%
same,growth at 10 µM,[13],-78%
same,growth at 10 µM,[14],-58%
same,growth at 10 µM,[15],-75%
same,growth at 10 µM,[16],-80%
same,growth at 10 µM,[17],-20%
same,growth at 1 µM,[18],63%
same,growth at 10 µM,[19],-75%
same,growth at 10 µM,[20],-56%
same,growth at 10 µM,[21],-69%
same,growth at 10 µM,[22],-37%
same,growth at 10 µM,[23],-87%
same,GI50,[24],1.21 µM
same,LC50,[24],6.17 µM
same,TGI,[24],2.73 µM
same,growth at 10 µM,[25],-62%
same,growth at 10 µM,[26],-31%
same,growth at 10 µM,[27],-47%
same,growth at 100 µM,[28],-62%
same,growth at 10 µM,[29],-77%
same,growth at 0.01 µM,[30],93%
same,growth at 10 µM,[31],-59%
same,growth at 10 µM,[32],-74%
same,growth at 10 µM,[33],-66%
same,growth at 10 µM,[34],-98%
same,GI50,[35],0.444 µM
same,LC50,[35],7.96 µM
same,TGI,[35],2 µM
same,growth at 10 µM,[36],-89%
same,growth at 10 µM,[39],-93%
same,growth at 10 µM,[38],-79%
